# In US12048679B2, “P53-destabilizing protein associated with proto-oncogene stemness as a therapeutic target and inhibitors thereof for use in treatment of cancer” (University of Southern California, priority 2021, dated 2024):
# “Also recorded” adds a separate entry of the source.
# Assays:
# [1] = tested on: NOTCH1 (NICD level) in CD133(+) or (−) TICs; assay: NOTCH1 processing: NICD produced after EDTA and DAPT treatment, Western blot; assay type: cell-based; conditions: 20 μM DAPT (4 h) with 5 mM EDTA (20 min), CD133-positive and negative TICs
# Method: FIGS. 1M and 1N depict that TBC1D15 affects NOTCH1 processing. • (1M) Western blot analysis for expression of endogenous NOTCH1 and N1ΔE-myc tag in CD133-positive and negative TICs, transfected with N1ΔE-FL and N1ΔE-ΔPEST and treated with vehicle or 20 μM DAPT (for 4 h), and 5 mM EDTA (for 20 min). • (1N) Western blot analysis for endogenous NOTCH1 and N1ΔE-myc tag in CD133-positive and negative TICs, transfected with N1ΔE-FL, N1ΔE-ΔPEST, and N1ΔE-V1745L (inhibition of gamma-secretase cleavage) and treated with vehicle or 20 μM DAPT.
# Pin1 is known to promote tumor formation by binding to the NOTCH/NICD STR domain and regulating its activity. To determine how TBC1D15 affects NOTCH1 activity, we tested whether it regulates NOTCH1 processing through a combination of a disintegrin and metalloproteinase (ADAM) 17 and γ-secretase. We overexpressed a membrane-tethered, ligand-independent wild type NOTCH1, a NOTCH1 derivative [NΔE, that is constitutively cleaved by γ-secretase, releasing active NICD (Rustighi et al., EMBO Mol Med 6, 99-119. 10.1002/emmm.201302909)], NΔE-ΔPEST, and NΔE-V1745L in CD133(+) or (−) TICs. We then analyzed the effects of TBC1D15 on endogenous NOTCH1 processing by measuring the amount of NICD produced after ethylenediaminetetraacetic acid (EDTA) and DAPT treatment in vitro.
# [2] = biological target: T1, TBC1D15-NOTCH interaction (Homo sapiens, UniProt Q8TC07); assay: Fluorescence polarization assay of FITC-tagged NOTCH1 PEST/STR domain peptide with recombinant TBC1D15; assay type: binding; conditions: FIG. 7C left
# T1 sequence (Q8TC07 1-691): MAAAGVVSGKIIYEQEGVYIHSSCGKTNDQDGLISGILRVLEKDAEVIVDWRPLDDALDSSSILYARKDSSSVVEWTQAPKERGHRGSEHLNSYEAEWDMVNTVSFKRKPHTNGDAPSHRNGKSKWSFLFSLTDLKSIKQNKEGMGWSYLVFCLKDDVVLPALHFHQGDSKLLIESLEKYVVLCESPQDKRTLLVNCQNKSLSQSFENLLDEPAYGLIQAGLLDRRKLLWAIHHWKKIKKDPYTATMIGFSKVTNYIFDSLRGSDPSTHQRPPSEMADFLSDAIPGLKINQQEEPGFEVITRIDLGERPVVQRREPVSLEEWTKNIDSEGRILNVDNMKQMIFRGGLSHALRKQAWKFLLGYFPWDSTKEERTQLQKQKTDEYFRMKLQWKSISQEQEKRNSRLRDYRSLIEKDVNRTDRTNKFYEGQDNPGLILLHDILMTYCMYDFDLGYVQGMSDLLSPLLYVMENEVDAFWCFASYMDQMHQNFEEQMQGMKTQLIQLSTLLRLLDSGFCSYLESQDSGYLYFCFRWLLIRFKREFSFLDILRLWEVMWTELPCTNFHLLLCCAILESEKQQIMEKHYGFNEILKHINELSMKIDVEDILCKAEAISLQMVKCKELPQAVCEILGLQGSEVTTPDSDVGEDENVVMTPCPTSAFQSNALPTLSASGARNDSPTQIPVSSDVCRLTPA
# Text: FIGS. 7A-7G depict that activated NOTCH can be targeted by small molecule inhibitors. • (7A) Analyses of 3D structure of TBC1D15-NOTCH1 interaction identified TBC1D15 N terminal region docking with a.a.1805-2113 of NOTCH1. […] See SEQ ID NOs:6-12 and 1, as depicted. Both were labeled with FITC and used with recombinant TBC1D15 for fluorescence polarization assay. The mutant served as a negative control. […] HA-NUMB-3D is HA-tagged phosphor-mimetic mutant of NUMB protein wherein three serine resides of phosphorylation sites are all replaced with phosphor-mimetic amino acid, D (aspartic acid), to have constitutively phosphorylated status of NUMB protein that reduce the binding ability between NOTCH and NUMB. […]
# In some embodiments, an inhibitor of TBC1D15 is a compound that inhibits binding of TBC1D15 with NOTCH, or inhibits the interaction between TBC1D15 and NOTCH. […] In yet another aspect, the inhibitor of TBC1D15 can be identified through a fluorescence polarization assay, wherein a fluorophore-labeled, binding domain of NOTCH1 (e.g., the STR domain or the PEST domain, or a peptide fragment thereof, within NICD) would have an increased fluorescence polarization (FP) when it is non-covalently bound to TBC1D15, as depicted in FIG. 7B, or a decreased FP when it is not bound to TBC1D15 due to the presence of an inhibitor of TBC1D15. […]
# [3] = tested on: CD133-positive TICs / CD133+ Huh7 cells; assay: Viability screening, CD133-positive cells; assay type: cell-based; conditions: FIG. 7C middle
# [4] = tested on: CD133-negative TICs / CD133− Huh7 cells; assay: Viability screening, CD133-negative control cells; assay type: cell-based; conditions: FIG. 7C middle
# [5] = tested on: primary hepatocytes; assay: Viability of primary hepatocytes; assay type: cell-based; conditions: FIG. 7C middle
# Text: (§1) FIGS. 7A-7G depict that activated NOTCH can be targeted by small molecule inhibitors. • (7A) Analyses of 3D structure of TBC1D15-NOTCH1 interaction identified TBC1D15 N terminal region docking with a.a.1805-2113 of NOTCH1. […] See SEQ ID NOs:6-12 and 1, as depicted. Both were labeled with FITC and used with recombinant TBC1D15 for fluorescence polarization assay. The mutant served as a negative control. […] HA-NUMB-3D is HA-tagged phosphor-mimetic mutant of NUMB protein wherein three serine resides of phosphorylation sites are all replaced with phosphor-mimetic amino acid, D (aspartic acid), to have constitutively phosphorylated status of NUMB protein that reduce the binding ability between NOTCH and NUMB. […] We then tested the therapeutic efficacy of the Inhibitor A in the PDX model of HCC. When the two oncogenic targets were restored by use of AAV vector-mediated co-transduction of both activated N1ICD and phosphormimetic NUMB, the tumor-killing effect of Inhibitor A was negated. Inhibitor A's tumor killing effects are largely dependent upon the inhibition of NOTCH activation and suppressing NUMB phosphorylation status.
# [6] = tested on: HEY1-CFP reporter (NOTCH-CFP); assay: HEY1-CFP (NOTCH-CFP) reporter in Huh7 cell line, FACS; assay type: cell-based; conditions: FIG. 7C right
# [7] = tested on: NANOG-GFP reporter; assay: NANOG-GFP reporter in Huh7 cell line, FACS; assay type: cell-based; conditions: FIG. 7C right
# [8] = tested on: dsRed-labeled TICs; assay: Tumor growth of dsRed-labeled TICs transplanted subcutaneously into NSG mice; assay type: in vivo; conditions: for tumors with fluorescence emission (dsRed imaging): FIG. 7E
# Text: as §1
# We tested the therapeutic efficacy of Inhibitor A in the patient-derived xenograft (PDX) model of HCC. […] A separate pharmacokinetic study was conducted at three doses (10, 20, 40 mg/kg) administered i.p. into NSG mice to determine blood and tissue levels of the Inhibitor and tissue histology. From these studies, we assessed pharmacokinetic, toxicity, and efficacy data to select an optimal dosing scheme.
# [9] = tested on: patient HCC; assay: Patient-derived xenograft (PDX) model of HCC in NSG mice; assay type: in vivo
# Text: as §1
# PDX mice were treated with the optimum dosing schedule. We monitored tumor sizes weekly three weeks post-transplantation for a total of 4 weeks (until the end of week 7). (If the tumor size reaches a diameter of ≥1.5 cm before 7 wk, we euthanized the mice per the IACUC guideline for tumor-bearing mice.) Our prior experience with the untreated HCC PDX model is 5-7 weeks are needed to generate tumors of the desired size (FIG. 7F). […]
# To test the therapeutic efficacy of the new inhibitor for its effect on TBC1D15-NICD interaction, we employed a true patient-derived xenograft (PDX) HCC model (FIG. 7F). We determined if newly identified small molecule inhibitors of the TBC1D15-NICD interaction would prevent tumor growth in the HCC PDX mouse model and specifically if this therapeutic effect was negatively affected by NICD expression, NUMB-3D expression, or the co-expression of NICD and NUMB-3D.
# [10] = tested on: p53, N1ICD and NANOG protein levels; assay: Immunoblots of xenograft tumors; assay type: in vivo, NSG mice; conditions: Inhibitor A-treated xenograft tumors, FIG. 7G
# Text: as §1
# PDX mice were treated with the optimum dosing schedule. We monitored tumor sizes weekly three weeks post-transplantation for a total of 4 weeks (until the end of week 7). (If the tumor size reaches a diameter of ≥1.5 cm before 7 wk, we euthanized the mice per the IACUC guideline for tumor-bearing mice.) Our prior experience with the untreated HCC PDX model is 5-7 weeks are needed to generate tumors of the desired size (FIG. 7F). Experimental animals were euthanized at the end of the seven weeks study period and all tumor tissues were collected for histology for tumor characterization. Immunoblots were used to detect levels of for NANOG, TBC1D15, NICD, HES1 or HEY, CD133, p53, NUMB, and pS265-NUMB (FIG. 7G). Immunohistochemistry analysis was performed to monitor the expression of CD133, NANOG, p53, and Ki67.
SMILES,effect on NICD level [1],inhibition of NOTCH-TBC1D15 interaction [2],toxicity to CD133-positive cells [3],toxicity to CD133-negative cells [4],toxicity to primary hepatocytes [5],NOTCH-CFP / HEY1 promoter reporter activity [6],NANOG-GFP / NANOG promoter reporter activity [7],tumors with fluorescence emission (dsRed imaging) ([8]; 10 mg/kg dose),inhibition of tumor growth ([8]; 40 mg/kg i.p. 5 times a week),"effect on tumor growth ([8]; dose series, NSG mice with dsRed-labeled TICs, FIG. 7D)",tumors with fluorescence emission (dsRed imaging) ([8]; doses higher than 10 mg/kg),growth suppression of patient HCC after N1ICD and HA-NUMB-3D co-transduction ([9]; HCC tissues infected with AAV vector delivering N1ICD and HA-NUMB-3D before transplantation),therapeutic effect under NICD overexpression ([9]; NICD overexpression),"growth of patient HCC transplanted into NSG mice ([9]; PDX model, FIG. 7F)",N1ICD protein level in xenograft tumors [10],NANOG protein level in xenograft tumors [10],p53 protein level in xenograft tumors [10]
"C[C@H](NC(=O)Cc1cc(F)cc(F)c1)C(=O)N[C@H](C(=O)OC(C)(C)C)c1ccccc1 [DAPT, N—[N-(3,5-Difluorophenacetyl)-L-alanyl]-S-phenylglycine t-butyl ester]",no observed effect on NICD level,,,,,,,,,,,,,,,,
"O=C(O)CCC/C=C\C[C@@H]1[C@@H](CC[C@@H](O)CCc2ccccc2)[C@H](O)C[C@@H]1O [Inhibitor A, (5Z,9α, 11α, 15R)-9,11,15-Trihydroxy-17-phenyl-18,19,20-trinor-prost-5-en-1-oic acid]",,effectively blocked the NOTCH-TBC1D15 interaction; also recorded: suppressed interaction between TBC1D15 and NICD; also recorded: blocked NOTCH1/3-TBC1D15 interactions,selectively killed CD133 positive TICs; also recorded: selectively kills CD133^+ Huh7 cells,not CD133^− Huh7 cells,not CD133^− Huh7 cells or primary hepatocytes,reduced HEY1 and NANOG promoter activities; also recorded: abrogates NOTCH-CFP and NANOG-GFP reporter activities,reduced HEY1 and NANOG promoter activities; also recorded: abrogates NOTCH-CFP and NANOG-GFP reporter activities,Tumors with fluorescence emission were detected,significant inhibition of tumor growth,dose-dependent inhibitory effect,not in those treated with higher doses,this effect largely diminished,NICD overexpression blocked the therapeutic effect,suppressed the growth of patient HCC,reduced N1ICD and NANOG protein levels,reduced N1ICD and NANOG protein levels,elevated p53 protein level
